The target of this assay is HIV-1 fusion (gp160 induced cell-cell fusion; HeLa P4 cell line expressing CCR5 and CD4 / CHO-Tat10 cell line) (Homo sapiens, UniProt P51681). The assay can be described thus: gp160 induced cell-cell fusion assay. It is filed as cell-based. The note with it: HeLa P4 / CHO-Tat10 cells, read-out: IC50. The text has this:
Biol., 60, 147-52 (1996); and/or by using the intracellular calcium mobilisation assays as described by the same authors, and/or inhibiting cell fusion following procedures disclosed in Bradley et al., J Biomol Screen 9, 516-24 (2004).
The gp160 induced cell-cell fusion assay uses a HeLa P4 cell line and a CHO-Tat10 cell line.
The HeLa P4 cell line expresses CCR5 and CD4 and has been transfected with HIV-1 LTR-β-Galactosidase. The media for this cell line is Dulbecco modified eagle's medium (D-MEM) (without L-glutamine) containing 10% foetal calf serum (FCS), 2 mM L-glutamine, penicillin/streptomycin (Pen/Strep; 100 U/mL penicillin+[…] streptomycin), and 1 μg/ml puromycin.
The CHO cell line is a Tat (transcriptional trans activator)-expressing clone from a CHO JRR17.1 cell line that has been transfected with pTat puro plasmid. The media for this cell line is rich medium for mammalian cell culture originally developed at Roswell Park Memorial Institute RPMI1640 (without L-glutamine) containing 10% FCS, 2 mM L-glutamine, 0.5 mg/ml Hygromycin B and 12 µg/ml puromycin. The CHO JRR17.1 line expresses gp160 (JRFL) and is a clone that has been selected for its ability to fuse with a CCR5/CD4 expressing cell line.
Upon cell fusion, Tat present in the CHO cell is able to transactivate the HIV-1 long terminal repeat (LTR) present in the HeLa cell leading to the expression of the β-Galactosidase enzyme. This expression is then measured using a Fluor Ace™ β-Galactosidase reporter assay kit (Bio-Rad cat no. 170-3150). This kit is a quantitative fluorescent assay that determines the level of expression of β-galactosidase using 4-methylumbelliferyl-galactopyranoside (MUG) as substrate. β-Galactosidase hydrolyses the fluorogenic substrate resulting in release of the fluorescent molecule 4-methylumbelliferone (4MU). Fluorescence of 4-methylumbelliferone is then measured on a fluorometer using an excitation wavelength of 360 nm and emission wavelength of 460 nm.
Compounds that inhibit fusion will give rise to a reduced signal and, following solubilisation in an appropriate solvent and dilution in culture medium, a dose-response curve for each compound can be used to calculate IC50 values.

One may read the IC50 as the concentration that gives 50% inhibition.

HIV-1 fusion (gp160 induced cell-cell fusion; HeLa P4 cell line expressing CCR5 and CD4 / CHO-Tat10 cell line), sequence (P51681 whole entry, the tested form may be a part): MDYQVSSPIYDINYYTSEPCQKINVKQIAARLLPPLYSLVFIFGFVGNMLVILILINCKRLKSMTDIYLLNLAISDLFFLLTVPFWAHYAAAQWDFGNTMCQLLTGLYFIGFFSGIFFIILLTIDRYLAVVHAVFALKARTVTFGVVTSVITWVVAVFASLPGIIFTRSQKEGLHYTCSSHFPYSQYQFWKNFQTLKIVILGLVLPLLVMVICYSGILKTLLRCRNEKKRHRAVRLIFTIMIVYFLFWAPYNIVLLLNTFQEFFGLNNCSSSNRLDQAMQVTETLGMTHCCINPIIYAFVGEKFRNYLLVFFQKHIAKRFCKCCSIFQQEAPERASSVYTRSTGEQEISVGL

Turning to `COC(=O)N1CCc2nc(C)n(C3CCN(C(C)CC(NC(=O)C4CCC(F)(F)CC4)c4ccccc4)CC3)c2C1` (mixture of isomers) [Example 6], the IC50 was 1 nM.

Regarding `COC(=O)N1CCc2nc(C)n(C3CCN(C(C)CC(NC(=O)CC4CC4)c4ccccc4)CC3)c2C1` (mixture of isomers) [Example 7], the IC50 worked out at 0.9 nM.

With `COC(=O)N1CCc2nc(C)n(C3CCN(C(C)CC(NC(=O)C4CCS(=O)(=O)CC4)c4ccccc4)CC3)c2C1` (mixture of isomers) [Example 8], the IC50 worked out at 6 nM.

On to `COC(=O)N1CCc2nc(C)n(C3CCN(C(C)CC(NC(=O)C4CCC4)c4ccccc4)CC3)c2C1` (mixture of isomers) [Example 10], for which the IC50 turned out to be 0.3 nM.

As to `COC(=O)N1CCc2nc(C)n(C3CCN(C(C)CC(NC(=O)C(C)C)c4ccccc4)CC3)c2C1` (mixture of isomers) [Example 11], the IC50 turned out to be 0.6 nM.

As to `COC(=O)N1CCc2nc(C)n(C3CCN(C(C)CC(NC(=O)C4CC4)c4ccccc4)CC3)c2C1` (mixture of isomers) [Example 12], the IC50 is 0.6 nM.

Take `COC(=O)N1CCc2nc(C)n(C3CCN(C(C)CC(NC(=O)OC(C)C)c4ccccc4)CC3)c2C1` (mixture of isomers) [Example 14]: the IC50 came out at 17.2 nM.

On to `COC(=O)N1CCc2c(nc(C)n2C2CCN(C(C)CC(NC(C)=O)c3cccc(F)c3)CC2)C1` (mixture of isomers) [Example 76], for which the IC50 was found to be 5.5 nM.

In the case of `COC(=O)N1CCc2c(nc(C)n2C2CCN(C(C)CC(NC(=O)C(C)C)c3cccc(F)c3)CC2)C1` (mixture of isomers) [Example 77], the IC50 stood at 0.6 nM.

Consider `COC(=O)N1CCc2c(nc(C)n2C2CCN(C(C)CC(NC(=O)C3CC3)c3cccc(F)c3)CC2)C1` (mixture of isomers) [Example 78], for which the IC50 worked out at 1.8 nM.

As to `CC(CC(NC(=O)C1CCC(F)(F)CC1)c1ccccc1)N1CCC(n2ccnc2)CC1` (mixture of isomers) [Example 127], the IC50 was 4.7 nM.

Take `Cc1nc(C2CCN(C(C)CC(NC(=O)C3CCC(F)(F)CC3)c3ccccc3)CC2)no1` (mixture of isomers) [Example 128]: the IC50 worked out at 26 nM.

For `CCc1noc(C2CCN(C(C)CC(NC(=O)C3CCC(F)(F)CC3)c3ccccc3)CC2)n1` (mixture of isomers) [Example 129], the 50% inhibitory concentration (IC50) worked out at 8.6 nM.

Regarding `CC(C)Cc1nnc(C2CCN(C(C)CC(NC(=O)C3CCC(F)(F)CC3)c3ccccc3)CC2)o1` (mixture of isomers) [Example 130], the IC50 is 5.9 nM.

Regarding `CC(C)c1nc(C2CCN(C(C)CC(NC(=O)C3CCC(F)(F)CC3)c3ccccc3)CC2)no1` (mixture of isomers) [Example 131], the IC50 is 20.2 nM.

On to `COC(=O)N1CCc2nc(C)n(C3CCN(C(C)C[C@H](NC(=O)OC(C)(C)C)c4ccccc4)CC3)c2C1` (single isomer, unassigned) [Example 2], for which the IC50 came to 14 nM.

`COC(=O)N1CCc2nc(C)n(C3CCN(C(C)C[C@H](NC(=O)OC(C)(C)C)c4ccccc4)CC3)c2C1` (single isomer, unassigned) [Example 3]: the IC50 amounted to 434 nM.

`COC(=O)N[C@@H](CC(C)N1CCC(n2c(C)nc3c2CN(C(=O)OC)CC3)CC1)c1ccccc1` (single isomer, unassigned) [Example 13A]: the IC50 turned out to be 37.1 nM.

Take `COC(=O)N[C@@H](CC(C)N1CCC(n2c(C)nc3c2CN(C(=O)OC)CC3)CC1)c1ccccc1` (single isomer, unassigned) [Example 13B]: the IC50 stood at 600 nM.

As to `Cc1nc2c(n1C1CCN(C(C)C[C@H](NC(=O)C3CCC3)c3ccccc3)CC1)CN(C(=O)C(C)C)CC2` (single isomer, unassigned) [Example 24], the IC50 is 0.2 nM.

Turning to `Cc1nc2c(n1C1CCN(C(C)C[C@H](NC(=O)CC(C)C)c3ccccc3)CC1)CN(C(=O)C(C)C)CC2` (single isomer, unassigned) [Example 28], the IC50 was 79.2 nM.

For `Cc1nc2c(n1C1CCN(C(C)C[C@H](NC(=O)C(C)C)c3ccccc3)CC1)CN(C(=O)C(C)C)CC2` (single isomer, unassigned) [Example 29], the IC50 worked out at 29.9 nM.

Turning to `Cc1nc2c(n1C1CCN(C(C)C[C@H](NC(=O)C3CCC3)c3ccccc3)CC1)CN(C(=O)C(C)C)CC2` (single isomer, unassigned) [Example 30], the IC50 came out at 11 nM.

Turning to `CC(=O)N[C@@H](CC(C)N1CCC(n2c(C)nc3c2CN(C(=O)C(C)C)CC3)CC1)c1ccccc1` (single isomer, unassigned) [Example 31], the IC50 came to 191 nM.

With `CCCC(=O)N[C@@H](CC(C)N1CCC(n2c(C)nc3c2CN(C(C)=O)CC3)CC1)c1cccc(F)c1` (single isomer, unassigned) [Example 47], the IC50 came out at 0.7 nM.

In the case of `CC(=O)N1CCc2nc(C)n(C3CCN(C(C)C[C@H](NC(=O)CC(C)C)c4cccc(F)c4)CC3)c2C1` (single isomer, unassigned) [Example 50], the IC50 turned out to be 0.4 nM.

Consider `CC(=O)N1CCc2nc(C)n(C3CCN(C(C)C[C@H](NC(=O)C4CCC(F)(F)CC4)c4cccc(F)c4)CC3)c2C1` (single isomer, unassigned) [Example 51], for which the IC50 came to 0.3 nM.

On to `COC(=O)N1CCc2c(nc(C)n2C2CCN(C(C)C[C@H](NC(C)=O)c3ccccc3)CC2)C1` (single isomer, unassigned) [Example 72], for which the IC50 is 2.4 nM.

For `COC(=O)N1CCc2c(nc(C)n2C2CCN(C(C)C[C@H](NC(C)=O)c3ccccc3)CC2)C1` (single isomer, unassigned) [Example 73], the IC50 is 9.1 nM.

Turning to `CC(=O)N1CCc2c(nc(C)n2C2CCN(C(C)C[C@H](NC(=O)C(C)C)c3cccc(F)c3)CC2)C1` (single isomer, unassigned) [Example 93], the IC50 was determined as 12.9 nM.

`CCOC(=O)N1CCc2c(nc(C)n2C2CCN(C(C)C[C@H](NC(=O)C(C)C)c3cccc(F)c3)CC2)C1` (single isomer, unassigned) [Example 95]: the IC50 turned out to be 5.5 nM.

Take `CCOC(=O)N1CCc2c(nc(C)n2C2CCN(C(C)C[C@H](NC(=O)C3CC3)c3cccc(F)c3)CC2)C1` (single isomer, unassigned) [Example 97]: the IC50 is 10 nM.

As for `CCOC(=O)N1CCc2c(nc(C)n2C2CCN(C(C)C[C@H](NC(=O)CC)c3cccc(F)c3)CC2)C1` (single isomer, unassigned) [Example 98], the IC50 was determined as 19.1 nM.

On to `CC(=O)N1CCc2c(nc(C)n2C2CCN(C(C)C[C@H](NC(=O)C3CC3)c3cccc(F)c3)CC2)C1` (single isomer, unassigned) [Example 101], for which the IC50 was 18.8 nM.

On to `CCC(=O)N[C@@H](CC(C)N1CCC(n2c(C)nc3c2CCN(C(C)=O)C3)CC1)c1cccc(F)c1` (single isomer, unassigned) [Example 102], for which the IC50 was 25.9 nM.

For `Cc1noc(C2CCN(C(C)C[C@H](NC(=O)OC(C)(C)C)c3ccccc3)CC2)n1` (single isomer, unassigned) [Example 106A], the IC50 amounted to 362 nM.

In the case of `Cc1noc(C2CCN(C(C)C[C@H](NC(=O)C3CCC(F)(F)CC3)c3ccccc3)CC2)n1` (single isomer, unassigned) [Example 109], the IC50 stood at 4.6 nM.

For the compound `Cc1noc(C2CCN(C(C)C[C@H](NC(=O)C3CCC(F)(F)CC3)c3ccccc3)CC2)n1` (single isomer, unassigned) [Example 110], the IC50 is 353 nM.

For the origin of these results see US20090209578A1, “CHEMICAL COMPOUNDS” (PFIZER INC, priority 2005, published 2009).
